According to paper PMC10728895, “Stapled Phd Peptides Inhibit Doc Toxin Induced Growth Arrest in Salmonella” (ACS Chemical Biology, 2023):
Positions of bridges follow the written chain, without caps; N, C: chain ends. Non-standard residues stand in square brackets, D forms with d. Residues, ends and D or L forms follow the SMILES beside them. S5 = C=CCCC[C@](C)(N)C(=O)O; Nle = CCCC[C@H](N)C(=O)O

Tested on: DocSTm toxin
Conditions: DocSTm 5 μM, peptide 50 μM; for ΔTm (thermal shift) of DocSTm in the presence of peptide: SYPRO Orange 3×, 20 mM K2HPO4, 50 mM (NH4)2SO4, pH 8.0, average Tm with peptide minus average Tm of free DocSTm, mean ± SD; for Average Tm of DocSTm in the presence of peptide: pH 8.0, average ± SD, replicates 3-48 (Table S3)
Protocol: The thermal shift assay was performed using a Mx3005P qPCR System (Agilent) collecting fluorescence data with a temperature ramp of 25 to 95 °C. Samples were prepared in a buffer containing 20 mM K2HPO4 and 50 mM (NH4)2SO4 at pH 8.0, with a final concentration of recombinant Doc protein at 5 μM and Phd peptides at 50 μM. SYPRO Orange dye (Sigma-Aldrich, 5000X stock in DMSO) was used to monitor protein denaturation in a final concentration of 3×. The final sample volume was 20 μL. Each condition was prepared in triplicate in each independent experiment. The melting curves were plotted using GraphPad Prism 9 (GraphPad Software, USA), and the melting temperatures were obtained by fitting the sigmoidal section of the curves to a Boltzmann sigmoid function. For the calculation of thermal shifts ΔTm, the average melting temperature of free DocSTm toxin as determined in the respective peptide measurement cycles was subtracted from the average melting temperature of DocSTm in the presence of the peptide (Table S3).

Row | Compound | ΔTm (thermal shift) of DocSTm in the presence of peptide | Average Tm of DocSTm in the presence of peptide
1 | CCCC[C@H](NC(=O)[C@H](Cc1c[nH]c2ccccc12)NC(C)=O)C(=O)N[C@@H](CCCNC(=N)N)C(=O)N[C@@H](CCCNC(=N)N)C(=O)N[C@@H](CCC(=O)O)C(=O)N[C@@H](Cc1ccccc1)C(=O)N[C@@H](CCCNC(=N)N)C(=O)N[C@@H](CCCNC(=N)N)C(=O)N[C@H](C(=O)N[C@@H](CCCC)C(=O)N[C@@H](CCCNC(=N)N)C(=O)N[C@H](C(=O)N[C@@H](Cc1c[nH]cn1)C(=O)NCC(=O)N[C@@H](CC(N)=O)C(=O)N[C@@H](CCC(=O)O)C(=O)N[C@@H](CC(C)C)C(=O)N[C@@H](CCCNC(=N)N)C(=O)N[C@@H](CCC(=O)O)C(=O)N[C@@H](CC(C)C)C(=O)N[C@@H](C)C(=O)N[C@@H](CC(=O)O)C(=O)N[C@@H](CCCCN)C(=O)O)C(C)C)[C@@H](C)CC [Peptide 14] (Ac-W[Nle]RREFRRI[Nle]RVHGNELRELADK-OH) | 11–13 °C | 56.0 ± 0.1 °C
2 | CCCC[C@H](NC(=O)[C@H](Cc1c[nH]c2ccccc12)NC(C)=O)C(=O)N[C@@H](CCCNC(=N)N)C(=O)N[C@@H](CC(N)=O)C(=O)N[C@@H](CCC(N)=O)C(=O)N[C@@H](Cc1ccccc1)C(=O)N[C@@H](C)C(=O)N[C@@H](C)C(=O)N[C@H](C(=O)N[C@@H](CCCC)C(=O)N[C@@H](CCCNC(=N)N)C(=O)N[C@H](C(=O)N[C@@H](Cc1c[nH]cn1)C(=O)NCC(=O)N[C@@H](CC(N)=O)C(=O)N[C@@H](CCC(N)=O)C(=O)N[C@@H](CC(C)C)C(=O)N[C@@H](CCCNC(=N)N)C(=O)N[C@@H](CCC(=O)O)C(=O)N[C@@H](CC(C)C)C(=O)N[C@@H](C)C(=O)N[C@@H](CC(N)=O)C(=O)N[C@@H](CCCCN)C(=O)O)C(C)C)[C@@H](C)CC [Peptide 22] (Ac-W[Nle]RNQFAAI[Nle]RVHGNQLRELANK-OH) |  | 54.7 ± 3.1 °C
3 | CCCC[C@H](NC(=O)[C@H](Cc1c[nH]c2ccccc12)NC(C)=O)C(=O)N[C@@H](CC(=O)O)C(=O)N[C@@H](CC(=O)O)C(=O)N[C@@H](CCC(=O)O)C(=O)N[C@@H](Cc1ccccc1)C(=O)N[C@@H](C)C(=O)N[C@@H](C)C(=O)N[C@H](C(=O)N[C@@H](CCCC)C(=O)N[C@@H](C)C(=O)N[C@@H](CCCNC(=N)N)C(=O)N[C@@H](Cc1c[nH]cn1)C(=O)NCC(=O)N[C@@H](CC(N)=O)C(=O)N[C@@H](CCC(=O)O)C(=O)N[C@@H](CC(C)C)C(=O)N[C@@H](CCCNC(=N)N)C(=O)N[C@@H](CCC(=O)O)C(=O)N[C@@H](CC(C)C)C(=O)N[C@@H](C)C(=O)N[C@@H](CC(=O)O)C(=O)N[C@@H](CCCCN)C(=O)O)[C@@H](C)CC [Peptide 8] (Ac-W[Nle]DDEFAAI[Nle]ARHGNELRELADK-OH) |  | 67.8 ± 0.1 °C
4 | CCCC[C@H](NC(=O)[C@H](Cc1c[nH]c2ccccc12)NC(C)=O)C(=O)N[C@@H](CC(N)=O)C(=O)N[C@@H](CC(N)=O)C(=O)N[C@@H](CCC(=O)O)C(=O)N[C@@H](Cc1ccccc1)C(=O)N[C@@H](C)C(=O)N[C@@]1(C)CCCC=CCCC[C@@](C)(C(=O)N[C@@H](Cc2c[nH]cn2)C(=O)NCC(=O)N[C@@H](CCCNC(=N)N)C(=O)N[C@@H](CCC(N)=O)C(=O)N[C@@H](CC(C)C)C(=O)N[C@@H](CCCNC(=N)N)C(=O)N[C@@H](CCCNC(=N)N)C(=O)N[C@@H](CC(C)C)C(=O)N[C@@H](C)C(=O)N[C@@H](CCCNC(=N)N)C(=O)N[C@@H](CCCCN)C(=O)O)NC(=O)[C@H](C)NC(=O)[C@H](CCCC)NC(=O)[C@H]([C@@H](C)CC)NC1=O [Peptide 37] (Ac-W[Nle]NNEFA[S5]I[Nle]A[S5]HGRQLRRLARK-OH; staple 8-12) | reduced stabilization | 55.3 ± 1.5 °C
5 | CCCC[C@H](NC(=O)[C@H](Cc1c[nH]c2ccccc12)NC(C)=O)C(=O)N[C@@H](CC(=O)O)C(=O)N[C@@H](CC(=O)O)C(=O)N[C@@H](CCCNC(=N)N)C(=O)N[C@@H](Cc1ccccc1)C(=O)N[C@@H](C)C(=O)N[C@@H](C)C(=O)N[C@H](C(=O)N[C@@H](CCCC)C(=O)N[C@@H](C)C(=O)N[C@H](C(=O)N[C@@H](Cc1c[nH]cn1)C(=O)NCC(=O)N[C@@H](CC(N)=O)C(=O)N[C@@H](CCC(=O)O)C(=O)N[C@@H](CC(C)C)C(=O)N[C@@H](CCCNC(=N)N)C(=O)N[C@@H](CCC(=O)O)C(=O)N[C@@H](CC(C)C)C(=O)N[C@@H](C)C(=O)N[C@@H](CC(=O)O)C(=O)N[C@@H](CCCCN)C(=O)O)C(C)C)[C@@H](C)CC [Peptide 4] (Ac-W[Nle]DDRFAAI[Nle]AVHGNELRELADK-OH) |  | 56.8 ± 2.1 °C
6 | CCCC[C@H](NC(=O)[C@H](Cc1c[nH]c2ccccc12)NC(C)=O)C(=O)N[C@@H](CC(=O)O)C(=O)N[C@@H](CC(=O)O)C(=O)N[C@@H](CCC(=O)O)C(=O)N[C@@H](Cc1ccccc1)C(=O)N[C@@H](C)C(=O)N[C@@H](C)C(=O)N[C@H](C(=O)N[C@@H](CCCC)C(=O)N[C@@H](C)C(=O)N[C@H](C(=O)N[C@@H](Cc1c[nH]cn1)C(=O)NCC(=O)N[C@@H](CC(N)=O)C(=O)N[C@@H](CCC(=O)O)C(=O)N[C@@H](CC(C)C)C(=O)N[C@@H](CCCNC(=N)N)C(=O)N[C@@H](CCC(=O)O)C(=O)N[C@@H](CC(C)C)C(=O)N[C@@H](CCCNC(=N)N)C(=O)N[C@@H](CC(=O)O)C(=O)N[C@@H](CCCCN)C(=O)O)C(C)C)[C@@H](C)CC [Peptide 12] (Ac-W[Nle]DDEFAAI[Nle]AVHGNELRELRDK-OH) |  | 68.3 ± 0.9 °C
7 | CCCC[C@H](NC(=O)[C@H](Cc1c[nH]c2ccccc12)NC(C)=O)C(=O)N[C@@H](CCCNC(=N)N)C(=O)N[C@@H](CC(N)=O)C(=O)N[C@@H](CCC(=O)O)C(=O)N[C@@H](Cc1ccccc1)C(=O)N[C@@H](CCCNC(=N)N)C(=O)N[C@@H](C)C(=O)N[C@H](C(=O)N[C@@H](CCCC)C(=O)N[C@@H](CCCNC(=N)N)C(=O)N[C@H](C(=O)N[C@@H](Cc1c[nH]cn1)C(=O)NCC(=O)N[C@@H](CC(N)=O)C(=O)N[C@@H](CCC(N)=O)C(=O)N[C@@H](CC(C)C)C(=O)N[C@@H](CCCNC(=N)N)C(=O)N[C@@H](CCC(=O)O)C(=O)N[C@@H](CC(C)C)C(=O)N[C@@H](C)C(=O)N[C@@H](CC(N)=O)C(=O)N[C@@H](CCCCN)C(=O)O)C(C)C)[C@@H](C)CC [Peptide 28] (Ac-W[Nle]RNEFRAI[Nle]RVHGNQLRELANK-OH) |  | 62.1 ± 0.2 °C
8 | CCCC[C@H](NC(=O)[C@H](Cc1c[nH]c2ccccc12)NC(C)=O)C(=O)N[C@@H](CC(=O)O)C(=O)N[C@@H](CC(=O)O)C(=O)N[C@@H](CCC(=O)O)C(=O)N[C@@H](Cc1ccccc1)C(=O)N[C@@H](C)C(=O)N[C@@H](C)C(=O)N[C@H](C(=O)N[C@@H](CCCC)C(=O)N[C@@H](C)C(=O)N[C@H](C(=O)N[C@@H](Cc1c[nH]cn1)C(=O)NCC(=O)N[C@@H](CC(N)=O)C(=O)N[C@@H](CCC(=O)O)C(=O)N[C@@H](CC(C)C)C(=O)N[C@@H](CCCNC(=N)N)C(=O)N[C@@H](CCC(=O)O)C(=O)N[C@@H](CC(C)C)C(=O)N[C@@H](C)C(=O)N[C@@H](CCCNC(=N)N)C(=O)N[C@@H](CCCCN)C(=O)O)C(C)C)[C@@H](C)CC [Peptide 13] (Ac-W[Nle]DDEFAAI[Nle]AVHGNELRELARK-OH) |  | 72.7 ± 0.4 °C
